The conditions of data set [1]: in vivo, iv; cited from earlier work.
Data set [2] can be described thus: Chromatographic capacity factor k' by reversed-phase column chromatography (relative lipophilicity). In kind it is physicochemical. Conditions: Nova-PAK CN HP reversed-phase column; methanol-0.1% phosphoric acid (1:20 v/v) with 10^-3 M triethylamine. From the text: The capacity factor k' of a solute is defined as: k'=(tr -t0)/t0 where tr is the retention time of the solute and t0 is the elution time of the solvent.

A further data set is described as follows: in vitro. As to conditions: for half-life: human, plasma. The protocol: (§1) Solutions of various compounds of formula I in aqueous buffer solutions or 80% human plasma solutions as well as in a buffer solution (pH 7.4) containing pyroglutamyl aminopeptidase (a calf liver preparation obtained from Boehringer, Mannheim, F.R.G.) were kept at 37° C. The initial concentration of the derivatives was in the range 10^-5 -10^-3 M. At various times an aliquot of the solutions was withdrawn and analyzed by HPLC for remaining (intact) derivative as well as for TRH. For the plasma solutions the aliquot (250 μl) withdrawn was added to 500 μl of a 2% solution of zinc sulphate in methanol-water (1:1 v/v) in order to deproteinize the plasma. After mixing and centrifugation for 3 min at 13,000 rpm, 20 μl of the clear supernatant was analyzed by HPLC as described above. The reaction conditions used for the studies with the pyroglutamyl aminopeptidase enzyme were identical to those previously described by Bundgaard & Moss (1989).
(§2) An HPLC method was used for the determination of TRH and its derivatives. […] For the determination of TRH formed upon hydrolysis of the various derivatives a mobile phase system consisting of acetonitrile-0.1% phosphoric acid (1:20 v/v) containing […] triethylamine was used. The flow rate was 1.5 ml min and the column effluent was monitored at 215 nm. Quantitation of the compounds was done by measuring the peak heights in relation to those of standards chromatographed under the same conditions.
For the consideration of the derivatives as prodrugs of TRH a crucial point is evidently their degradation pathways. Ideally, the compounds should be hydrolyzed in plasma at the imidazole-protected moiety, releasing TRH in quantitative amounts.
The reactions taking place in plasma can be illustrated as shown in Scheme 1.

For data set [3], the target named is T1, pyroglutamyl aminopeptidase (PAPase I) (Bos taurus, UniProt A0ABI0NU39).
T1 sequence (A0ABI0NU39 1-214): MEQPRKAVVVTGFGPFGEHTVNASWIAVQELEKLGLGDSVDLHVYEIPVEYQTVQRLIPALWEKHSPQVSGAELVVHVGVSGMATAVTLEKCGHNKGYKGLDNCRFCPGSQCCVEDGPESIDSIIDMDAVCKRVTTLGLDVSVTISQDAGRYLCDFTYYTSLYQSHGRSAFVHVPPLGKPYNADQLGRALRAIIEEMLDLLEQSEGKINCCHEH
The data set is described as follows: in vitro. Conditions: for half-life: calf. The protocol: as §1, §2

For data set [4] the following is noted: rat, in vivo, iv; cited from earlier work.
The next data set can be described thus: physchem. As to conditions: pH 7.4.
Data set [5] can be described thus: Apparent partition coefficient between 1-octanol and phosphate buffer pH 7.4. As to conditions: for logD: 1-octanol/0.02 M phosphate buffer pH 7.4, pH 7.4.
Experimental: (§3) The lipophilicity of the derivatives of the present invention and of TRH was assessed by measuring the apparent partition coefficients (P) of the compounds between 1-octanol and 0.02M phosphate buffer of pH 7.4.
Data set [6] is described as follows: Hydrolysis in aqueous buffer solutions (HPLC). The format is physicochemical. The protocol:
as §1, with “Solutions of various compounds of formula I in aqueous buffer solutions or 80% human plasma solutions as well as in a buffer solution (pH 7.4) containing pyroglutamyl aminopeptidase (a calf liver preparation obtained from Boehringer, Mannheim, F.R.G.) were kept at 37° C.” left out
as §2

Data set [7] in a line: Percutaneous absorption, in vitro diffusion through excised human skin (Franz cells). Conditions: for steady-state flux: 5% prodrug in aqueous solution (pH 6.0).
Experimental: The feasibility of achieving transdermal delivery of TRH via the prodrugs ot the present invention was evaluated by diffusion experiments in vitro using human skin samples.
Whole abdominal human skin obtained under autopsy was used. The skin was stored at -18° C. and was allowed to thaw gradually at room temperature before use. All subcutaneous fat was removed and the skin cut into pieces. […] The dermal side of the skin was exposed to the receptor medium (5 ml of 0.05M isotonic phosphate buffer solution of pH 7.2) which was stirred magnetically and kept at a constant temperature of 37° C. with a circulating water bath.
The compounds were applied as 5% w/v solutions in 0.05M phosphate buffer (final pH being 6.0) or propylene glycol (100 or 200 μl). At appropriate intervals samples of 1 ml were removed from the receptor phase and replaced with fresh buffer. The samples were immediately analyzed for TRH and prodrug content by HPLC as described above. The permeation studies of each compound in each vehicle were done in triplicate.

Like-named read-outs stand apart in the source and are kept apart here.

Experimental for physchem: as §3

Take `NC(=O)[C@@H]1CCCN1C(=O)[C@H](Cc1cnc[nH]1)NC(=O)[C@@H]1CCC(=O)N1` [TRH, pGlu-L-His-L-ProNH2, reference compound]: the plasma half-life in [1] is 4 to 6 min. Besides, in [2], the “log k'” value is recorded as less than 0.4. In “in vitro”, the “Half-life at 37° C., 80% v/v human plasma” value is recorded as 9 min; the “zero-order rate constant of degradation” value was 7.2e-07 M/min; the half-life turned out to be 9 min. This molecule showed a half-life in [3] (isolated enzyme aminopeptidase, pH 7.4) of 4 min. The “Half-lives at 37° C., pyroglutamyl aminopeptidase” value in data set [3] (pH 7.4) came to 4 min. The plasma half-life in data set [4] is 4 to 6 min. In “physchem”, the logD is -2.46.
`CCOC(=O)n1cnc(C[C@H](NC(=O)[C@@H]2CCC(=O)N2)C(=O)N2CCC[C@H]2C(N)=O)c1` [C2 H5]: the “log k'” value in [2] is reported as 0.85. For the same molecule, the half-life in “in vitro” is 228 min; in data set [3], 23 min. The logD in data set [5] was -1.3. The “Half-lives at 37° C., pH 7.4 buffer” value in data set [6] is recorded as 14.2 h.
Consider `CCCC(CCC)OC(=O)n1cnc(C[C@H](NC(=O)[C@@H]2CCC(=O)N2)C(=O)N2CCC[C@H]2C(N)=O)c1` [CH(C3 H7)2], for which, in data set [5], the log distribution coefficient (logD) amounted to 1.2.
As to `NC(=O)[C@@H]1CCCN1C(=O)[C@H](Cc1cn(C(=O)OCCCl)cn1)NC(=O)[C@@H]1CCC(=O)N1` [CH2 CH2 Cl], in data set [5], the logD is -1.1.
`CC(C)COC(=O)n1cnc(C[C@H](NC(=O)[C@@H]2CCC(=O)N2)C(=O)N2CCC[C@H]2C(N)=O)c1` [CH2 CH(CH3)2]: in data set [2], the “log k'” value was found to be 1.09. Besides, the half-life is 258 min in the data set “in vitro” and 11 min in data set [3]. Also, the logD in data set [5] is -0.44. Also, the “Half-lives at 37° C., pH 7.4 buffer” value in data set [6] amounted to 19.0 h.
Take `COC(=O)n1cnc(C[C@H](NC(=O)[C@@H]2CCC(=O)N2)C(=O)N2CCC[C@H]2C(N)=O)c1` [CH3]: the “log k'” value in data set [2] is given as 0.71. For the same molecule, the half-life in “in vitro” is 168 min; in data set [3], 12 min. Besides, in data set [5] (octanol / 0.02 M phosphate buffer pH 7.4, 21° C.), the “log P” value is listed as 1.88. Further, the “Half-lives at 37° C., pH 7.4 buffer” value in data set [6] was determined as 9.3 h.
On to `CCCCCCCCOC(=O)n1cnc(C[C@H](NC(=O)[C@@H]2CCC(=O)N2)C(=O)N2CCC[C@H]2C(N)=O)c1` [n-C8 H17, N-Octyloxycarbonyl TRH], for which the steady-state flux in data set [7] (human skin) was found to be 0.044±0.006 μmol TRH/h/cm^2; in data set [7] (human skin, converted from μmol), 16 μg TRH/h/cm^2. Besides, in [7] (5% prodrug in propylene glycol, human skin), the flux came to 3.6 μg/h/cm^2. The “conversion of applied prodrug to parent TRH during diffusion through skin” value in data set [7] (human skin samples) is “Essentially all”. Besides, the “log k'” value in data set [2] is 1.50. Further, the half-life in “in vitro” is 30 min; in data set [3], 24 min. Moreover, in [5], the logD worked out at 1.88. The “time for 10% degradation” value in data set [6] (aqueous solution, pH 5.8, 20° C.) turned out to be 76 h. In addition, in data set [6], the “Half-lives at 37° C., pH 7.4 buffer” value came out at 17.5 h.
Regarding `CCCCC(CC)COC(=O)n1cnc(C[C@H](NC(=O)[C@@H]2CCC(=O)N2)C(=O)N2CCC[C@H]2C(N)=O)c1` (stereo partly shown) [CH2 CH(C2 H5)C4 H9], the logD in data set [5] was found to be 1.82.
For the molecule `CC(C)OC(=O)n1cnc(C[C@H](NC(=O)[C@@H]2CCC(=O)N2)C(=O)N2CCC[C@H]2C(N)=O)c1` [CH(CH3)2], in [2], the “log k'” value was 0.96. Moreover, the half-life is 396 min in “in vitro” and 29 min in data set [3]. Besides, the logD in data set [5] is -0.8. In addition, in [6], the “Half-lives at 37° C., pH 7.4 buffer” value came to 35.8 h.
With `CCCCOC(=O)n1cnc(C[C@H](NC(=O)[C@@H]2CCC(=O)N2)C(=O)N2CCC[C@H]2C(N)=O)c1` [n-C4 H9], the “log k'” value in data set [2] came out at 1.07. For the same molecule, the half-life is 258 min in “in vitro” and 11 min in data set [3]. For the same molecule, the logD in data set [5] was -0.47. Further, in data set [6], the “Half-lives at 37° C., pH 7.4 buffer” value amounted to 19.0 h.
With `NC(=O)[C@@H]1CCCN1C(=O)[C@H](Cc1cn(C(=O)OCc2ccccc2)cn1)NC(=O)[C@@H]1CCC(=O)N1` [CH2 C6 H5], the half-life in [3] was 7 min. Besides, the logD in data set [5] was -0.11. Besides, the “Half-lives at 37° C., pH 7.4 buffer” value in data set [6] turned out to be 9.0 h.
As for `NC(=O)[C@@H]1CCCN1C(=O)[C@H](Cc1cn(C(=O)OC2CCCCC2)cn1)NC(=O)[C@@H]1CCC(=O)N1` [C6 H10 (cyclohexyl)], the “log k'” value in data set [2] came out at 1.28. Moreover, the values for the half-life (in “in vitro”; in [3]) were 384 min and 22 min, respectively. The logD in data set [5] was found to be 0.6. The “Half-lives at 37° C., pH 7.4 buffer” value in data set [6] came out at 36.8 h.
The corresponding values for `CCCCCCOC(=O)n1cnc(C[C@H](NC(=O)[C@@H]2CCC(=O)N2)C(=O)N2CCC[C@H]2C(N)=O)c1` [n-C6 H13, N-Hexyloxycarbonyl TRH] are 1.29, 72 min, 8 min, 0.71 and 17.9 h.
As for `CCC(CC)OC(=O)n1cnc(C[C@H](NC(=O)[C@@H]2CCC(=O)N2)C(=O)N2CCC[C@H]2C(N)=O)c1` [CH(C2 H5)2], the logD in [5] is 0.2.

The values above are taken from patent publication US5405834A, “Prodrug derivatives of thyrotropin-releasing hormone (TRH)” (priority 1989, dated 1995).
